Measurements taken from patent publication US6693167B1, “Peptide-based gemini compounds” (SmithKline Beecham p.l.c., priority 1997, dated 2004).

Tests used:
Type in all cases: cell-based
[1] = test system: HEK293 cells; experiment: Transfection of luciferase plasmid into HEK293 cells
Experimental: All tissue culture reagents were obtained from Life Technologies Inc. HEK 293 cells were seeded at 2-3×10^5 cells per well in Nunc six-well culture plates, 24 hours prior to transfection. The cells were seeded in 2 mls Dulbeccos Modified Eagle medium containing Earles salts and supplemented with 10% v/v foetal bovine serum (=complete medium). The cells were grown at 37° C. in 5% CO2 in a humidified atmosphere. 6 ug DNA (“luciferase control plasmid” from Promega Corp.) were dissolved in 100 ul serum free medium (OPTI-MEM®). The peptide-based gemini compounds were made up at 1 mg/ml in tissue culture grade water and then diluted in OPTI-MEM® to the appropriate concentration to a final volume of […]. The DNA and gemini solutions were mixed (to a total volume of 200 ul; final concentrations of 5, 25, 50, 100, 150, 200, 250 and 300 ug/ml) and left at room temperature for 15 minutes. The DNA/gemini mix was placed onto the cells in each well and left in contact for 18-20 hours. The cells were then washed twice with phophate buffered saline prior to 1 ml of fresh complete medium being added. Cells were incubated for a further 24 hours prior to lysis and luciferase activity assayed.
All luciferase activity assays were performed using the Canberra Packard (Berkshire, UK) Luclite kit according to the manufacturer's instructions with the exception that the cells in each well were resuspended in 1 ml lysis buffer and 10 ul aliquots mixed with 100 ul of the luciferase substrate. The reaction mix was left for a 15 minutes adaptation period in the dark before counting for 5 minutes in a Top Count scintillation counter. Luciferase activity is measured as counts per second (CPS) from the scintillation counter. Four independent counts were taken per well.
Control transfections were set up with no DNA, CaPO4, an anionic gemini compound (1) and the commercially available lipofection reagents LipofectAmine™ and Lipotaxi™ at the manufacturers recommended concentrations (10, 25, 50, 75, 125 ug/ml and 175, 250, 325, 400 and 500 ug/ml respectively).

[2] = test system: CHO-K1 cells; experiment: Transfection of luciferase plasmid into CHO-K1 cells
Experimental: CHO-K1 cells (ATCC: CRL-9618) were seeded into T25-culture flasks (Corning-Costar Buckinghamshire, UK), at 7×10^5 cells per flask, 24 hours prior to transfection. The CHO-K1 cells were seeded in 5 ml MEM alpha medium with ribonucleosides and deoxyribonucleosides and supplemented with 1×L-glutamine and 10% v/v foetal bovine serum (complete medium). The cells were grown at 37° C. in 5% CO2 in a humidified atmosphere.
For transfection, 5 ug DNA (luciferase control plasmid) was incubated with the gemini compounds in water (final volume 400 μl). The peptide-based gemini compounds were made up at 1 mg ml^−1 in tissue culture grade water and then diluted to the appropriate concentration to a total volume of 200 μl. Following a 30 minute room temperature incubation, 2.6 ml OPTI-MEM® medium was added and the solution placed on the cells. Following an overnight incubation at 37° C., the transfection solution was replaced with complete medium and the cells incubated at 37° C. 24 hours post transfection the cells were detached from the flask and seeded into 96-well plates at a density of 0.5×10^5 cells per well and incubated for a further 24 hours at 37° C. Luciferase reporter gene assays were performed according to the manufacturers instructions (Roche Diagnostics, Mannheim, Germany) approximately 48 hours post transfection. The plates were left for a 15 minutes adaption period in the dark before counting for 60 seconds in a TopCount NXT counter (Canberra Packard). An average of eight wells were counted per transfection.
Control transfections were set up with no DNA, an anionic gemini compound and the commercially available reagent LipofectAmine PLUS™.

[3] = test system: CHO-K1 cells; experiment: Transfection of luciferase plasmid into CHO-K1 cells in combination with supplements (DOPE, PLUS)
Experimental: The transfection ability of the gemini compounds could be further enhanced by the addition of a neutral carrier, for example, dioleyl phosphatidylethanolamine (DOPE) (Farhood, H., et al (1985) Biochim. Biophys. Acta 1235 289) or a complexing reagent, for example, PLUS compound (Life Technologies Inc.). […] Transfection mediated by compound 55 with DOPE in a 2:1 ratio and the addition of 11.6 ul of PLUS compound lead to a mean count of 6.5×10^5 cps representing a 12-fold increase of luciferase activity in comparison to compound 55 alone. Incubation of the PLUS compound with the DNA and combination with compound 55 alone also lead to a 4-fold increase.

[4] = compound 55 with DOPE 2:1 plus 11.6 ul PLUS compound

## CCCCCCCCCCCCNC(=O)C(CO)NC(=O)C(CSCCSCC(NC(=O)C(N)CCCCNC(=O)C(N)CCCCN)C(=O)NC(CO)C(=O)NCCCCCCCCCCCC)NC(=O)C(N)CCCCNC(=O)C(N)CCCCN.Cl.Cl.Cl.Cl (stereo not shown) [Compound 55]
[1]; at concentrations above 150 ug/ml
  Efficiency in facilitating transfection of the luciferase plasmid: very efficient
[1]; luciferase control plasmid
  Most effective (peak) concentration for transfection: 300 µg/mL
[1]; luciferase control plasmid, at the agent's most effective concentration, mean of 4 independent counts
  Luciferase activity, mean count at peak efficiency: about 45,000 cps
[2]
  Efficiency in facilitating transfection of the luciferase plasmid: very efficient
[2]; 5 ug luciferase control plasmid, mean of 8 wells
  Luciferase activity, mean count at most effective concentration: about 2.4×10^5 cps
[2]; luciferase control plasmid
  Most effective (peak) concentration for transfection: 30 µM
[3]; PLUS compound incubated with the DNA, combined with compound 55 alone (no DOPE)
  Increase of luciferase activity: 4 fold
[3]; compound 55 and DOPE at 2:1 ratio
  Increase of luciferase activity: 9 fold
[3]; [4]
  Increase of luciferase activity in comparison to compound 55 alone: 12 fold
  Luciferase activity, mean count: 6.5×10^5 cps
